SMILES strings stand for the structures. Activity calls are given as the source filed them. The rule behind the calls is not given here.

This note sets out measurements from ChEMBL document CHEMBL3627627, “1,2,3-Triazole-based analogue of benznidazole displays remarkable activity against Trypanosoma cruzi” (Bioorg Med Chem, 2015).

In series [1] the test system is Trypanosoma cruzi. The series can be described thus: Antiparasitic activity against trypomastigote form of Trypanosoma cruzi Tulahuen-lacZ infected in LLC-MK2 ATCC cells assessed as parasite viability incubated for 4 days at 37 degC by chlorophenol beta-D-galactopyranose substrate based trypanocidal assay. Format: functional, organism-based. To be noted: LLC-MK2, 96 h.

The test system of series [2] is Trypanosoma cruzi. Nature of the series: Antiparasitic activity against amastigote form of Trypanosoma cruzi Y strain infected in bone marrow macrophage cells assessed as amastigote viability incubated for 4 days by rapid panoptic stain based microscopy method. As to conditions: 96 h. Format: functional, organism-based.
The nature of series [3]: Cytotoxicity against C57BL/6 mouse spleen cells assessed as growth inhibition incubated for 24 hrs at 37 degC by propidium iodide stain based flow cytometry method. As to conditions: for CC50 at 24 h: C57BL/6, mouse, spleen cells, read-out: ED50; for ED50: mouse, spleen, 24 h. In kind it is cell-based.
In series [4] the test system is Trypanosoma cruzi. Nature of the series: Antiparasitic activity against trypomastigote form of Trypanosoma cruzi Y strain assessed as parasite viability at 62.5 to 500 uM incubated for 24 hrs. Format: functional, organism-based.
A short description of series [5]: Selectivity index, ratio of ED50 for C57BL/6 mouse spleen cells to IC50 for Trypanosoma cruzi Tulaheun. In kind it is functional.
For series [6], the system named is Trypanosoma cruzi. The series can be described thus: Potency index, ratio of IC50 of benznidazole for Trypanosoma cruzi Tulahuen to IC50 of test compound for Trypanosoma cruzi Tulahuen. In kind it is functional.
The subject of series [7] is Trypanosoma cruzi. The series can be described thus: Antiparasitic activity against trypomastigote form of Trypanosoma cruzi Y strain infected in Swiss mouse assessed as reduction in blood trypomastigote viability at 100 mg/kg/day, po starting on day 5 post-infection and followed for 10 consecutive days by light microscopy method. Format: functional, organism-based.
The nature of series [8]: Solubility of the compound in water. Format: physicochemical. As to conditions: buffer.

The term IC50 denotes the concentration that inhibits the measured activity by half. Consider `COc1cccc(-c2cnnn2CC(=O)NCc2ccccc2)c1`, for which the IC50 came to 50 µM in the series with Trypanosoma cruzi [1] and 60.4 µM with Trypanosoma cruzi [2]. The CC50 at 24 h in series [3] was > 2000 µM.
On to `O=C(Cn1ccnc1[N+](=O)[O-])NCc1ccccc1` [BENZNIDAZOLE], for which the IC50 with Trypanosoma cruzi [1] was 34 µM; in the series with Trypanosoma cruzi [2] it was 16 µM. Moreover, the result in the series with Trypanosoma cruzi [4] was Active.
As to `COc1ccc(-c2cn(CC(=O)NCc3ccccc3)nn2)cc1`, in the series with Trypanosoma cruzi [1], the IC50 was > 100 µM. In addition, the ED50 entry in series [3] was “Non-toxic”.
In the same order, the values of `O=C(Cn1cc(-c2ccccc2C(F)(F)F)nn1)NCc1ccccc1` are > 100 µM and “Non-toxic”.
Regarding `O=C(Cn1cc(CO)nn1)NCc1ccccc1`, the half-maximal inhibitory concentration (IC50) with Trypanosoma cruzi [1] is > 500 µM. Further, the CC50 at 24 h in series [3] turned out to be 490 µM.
Turning to `O=C(Cn1cc(C(=O)O)nn1)NCc1ccccc1`, in the series on Trypanosoma cruzi [1], the IC50 was > 100 µM. Moreover, in series [3], the ED50 entry is on record as “Non-toxic”.
Consider `O=C(Cn1cc(CCCCO)nn1)NCc1ccccc1`, for which, in the series on Trypanosoma cruzi [1], the half-inhibitory concentration (IC50) is > 400 µM. In series [3], the CC50 at 24 h worked out at 1700 µM.
Turning to `O=C(Cn1nncc1-c1cccc([N+](=O)[O-])c1)NCc1ccccc1`, in the series with Trypanosoma cruzi [1], the IC50 amounted to 86 µM. In the series with Trypanosoma cruzi [4], the result was inactive. The ED50 result in series [3] is given as “Non-toxic”.
Regarding `O=C(Cn1cc(-c2cccc(F)c2)nn1)NCc1ccccc1`, in the series on Trypanosoma cruzi [1], the IC50 was > 100 µM. The ED50 result in series [3] is given as “Non-toxic”.
Turning to `Cc1ccccc1-c1cn(CC(=O)NCc2ccccc2)nn1`, in the series with Trypanosoma cruzi [1], the IC50 is > 100 µM. For the same compound, the “Selectivity Index” value in series [5] is recorded as 3.2. In series [3], the CC50 at 24 h amounted to 940 µM.
In the case of `CC(C)(C)OC(=O)NCc1cn(CC(=O)NCc2ccccc2)nn1`, the IC50 in the series with Trypanosoma cruzi [1] is > 100 µM. In series [3], the CC50 at 24 h is > 2000 µM.
The matching figures for `CCC(O)Cc1cn(CC(=O)NCc2ccccc2)nn1` (stereo not drawn): > 500 µM and 630 µM.
Consider `O=C(Cn1cc(C(=O)OCc2ccccc2)nn1)NCc1ccccc1`, for which the IC50 in the series on Trypanosoma cruzi [1] was > 500 µM. Also, in series [3], the CC50 at 24 h was 720 µM.
`O=C(Cn1cc(-c2ccc([N+](=O)[O-])cc2)nn1)NCc1ccccc1`: the “Ratio IC50” value in the series with Trypanosoma cruzi [6] is 5. For the same compound, the IC50 in the series with Trypanosoma cruzi [1] was 7 µM; with Trypanosoma cruzi [2], 41.2 µM. The outcome with Trypanosoma cruzi [7] and in the series on Trypanosoma cruzi [4] was Active. For the same compound, the solubility result in series [8] was “Insoluble”. In series [5], the “Selectivity Index” value turned out to be 114.3. In addition, in series [3], the CC50 at 24 h worked out at 800 µM.
`O=C(O)CCCCc1cn(CC(=O)NCc2ccccc2)nn1`: the half-inhibitory concentration (IC50) in the series with Trypanosoma cruzi [1] is > 500 µM. Moreover, the CC50 at 24 h in series [3] came out at 1080 µM.
Consider `O=C(O)CCc1cn(CC(=O)NCc2ccccc2)nn1`, for which, in the series on Trypanosoma cruzi [1], the IC50 is > 500 µM. Besides, the CC50 at 24 h in series [3] was 1420 µM.
In the case of `O=C(Cn1cc(-c2cccc(C(F)(F)F)c2)nn1)NCc1ccccc1`, the concentration for half-maximal inhibition (IC50) in the series with Trypanosoma cruzi [1] was > 100 µM. The ED50 entry in series [3] was “Non-toxic”.
For `COc1cccc(-c2cn(CC(=O)NCc3ccccc3)nn2)c1`, the IC50 with Trypanosoma cruzi [1] amounted to 40 µM; in the series on Trypanosoma cruzi [2], 61.8 µM. Besides, in series [5], the “Selectivity Index” value amounted to 21. In addition, in series [3], the CC50 at 24 h amounted to 840 µM.
For `O=C(Cn1nncc1CO)NCc1ccccc1`, the IC50 in the series on Trypanosoma cruzi [1] is > 100 µM. In addition, the CC50 at 24 h in series [3] was > 2000 µM.
In the case of `O=C(Cn1cc(-c2ccccc2[N+](=O)[O-])nn1)NCc1ccccc1`, the IC50 with Trypanosoma cruzi [1] is > 100 µM. The result with Trypanosoma cruzi [4] was inactive. For the same compound, the ED50 entry in series [3] was “Non-toxic”.
As to `NCc1cn(CC(=O)NCc2ccccc2)nn1`, in the series with Trypanosoma cruzi [1], the IC50 was > 500 µM. In series [3], the CC50 at 24 h is > 2000 µM.
`O=C(Cn1cc(-c2cccc([N+](=O)[O-])c2)nn1)NCc1ccccc1`: the IC50 with Trypanosoma cruzi [1] is > 100 µM. Also, the result in the series on Trypanosoma cruzi [4] was inactive. Also, in series [3], the CC50 at 24 h was > 2000 µM.
Take `Cc1ccc(-c2cn(CC(=O)NCc3ccccc3)nn2)cc1`: in the series with Trypanosoma cruzi [1], the IC50 is > 100 µM. In addition, in series [3], the ED50 entry is recorded as “Non-toxic”.
Take `Nc1cccc(-c2cn(CC(=O)NCc3ccccc3)nn2)c1`: the IC50 with Trypanosoma cruzi [1] is > 100 µM. Further, in series [5], the “Selectivity Index” value is given as 4.4. The CC50 at 24 h in series [3] came to 800 µM.
As to `CC(C)(O)c1cn(CC(=O)NCc2ccccc2)nn1`, in the series on Trypanosoma cruzi [1], the IC50 was > 400 µM. The CC50 at 24 h in series [3] was 1600 µM.
In the case of `O=C(Cn1nncc1-c1ccc([N+](=O)[O-])cc1)NCc1ccccc1`, the IC50 in the series on Trypanosoma cruzi [1] is > 100 µM. For the same compound, the outcome in the series with Trypanosoma cruzi [4] was inactive. Also, the ED50 entry in series [3] is reported as “Non-toxic”.
Take `COc1cc(OC)cc(-c2cn(CC(=O)NCc3ccccc3)nn2)c1`: the IC50 with Trypanosoma cruzi [1] is > 100 µM. The ED50 entry in series [3] was “Non-toxic”.
Turning to `Nc1ccc(-c2cn(CC(=O)NCc3ccccc3)nn2)cc1`, in the series with Trypanosoma cruzi [1], the IC50 was > 100 µM. Also, in series [5], the “Selectivity Index” value is given as 7.7. In series [3], the CC50 at 24 h is 1240 µM.
